Results from patent US5556858A, “Cis-2-[(4-heteroaryl-1-piperazinyl)alkyl] hexahydro-1H-isoindole-1,3 (2H)-diones and related compounds and their therapeutic utility” (Hoechst-Roussel Pharmaceuticals, Inc., priority 1995, dated 1996).
Structures can show the parent of a compound that is named as a salt.

What follows are compounds tested on apomorphine climbing (assay: climbing mice assay (antipsychotic activity)). Conditions: Mus musculus; ip; apomorphine 1.5 mg/kg subcutaneously; climbing score vs control.
Assay type: in vivo, mice (CK-1 male)
Experimental: Subject […] male mice (23-27 grams) are group-housed under standard laboratory conditions. The mice are individually placed in wire mesh stick cages (4"×10") and are allowed one hour for adaption and exploration of the new environment.
For evaluation of climbing, 3 readings are taken at 10, 20, and 30 minutes-after apomorphine administration according to the following scale: […]
Mice consistently climbing before the injection of apomorphine are discarded.
With full-developed apomorphine climbing, the animals are hanging on to the cage walls, rather motionless, over long periods of time. By contrast, climbs due to mere motor stimulation usually only last a few seconds.
The climbing scores are individually totaled (maximal score: 6 per mouse over 3 readings) and the total score of the control group (vehicle intraperitoneally-apomorphine subcutaneously) is set to 100%.

Row | SMILES | ED50
1 | O=C(CN1CCC(c2noc3cc(F)ccc23)CC1)N1CCc2ccccc2C1 [1-(1,2,3,4-Tetrahydro-1H-isoquinolin-2-yl)-2-[4-(6-fluoro-1,2-benzosoxazol-3-yl)-1-piperidinyl]-ethanone hydrochloride ethanolate] | 6.25 mg/kg
2 | Cl.Cl.NCCCN1CCC(c2noc3cc(F)ccc23)CC1 [1-(3-Aminopropyl)-4-(6-fluoro-1,2-benzisoxazol-3-yl)piperidine dihydrochloride] | 22.6 mg/kg
3 | CC(=O)c1ccc(CCCCN2CCC(c3noc4cc(F)ccc34)CC2)cc1 [1-[4-(4'-Acetophenyl)butyl]-4-(6-fluoro-1,2-benzisoxazol-3-yl)piperidine] | 0.34 mg/kg
4 | COc1cc(C(C)=O)ccc1OCCCN1CCC(c2nsc3cc(F)ccc23)CC1.Cl [1-[4-[3-[4-(6-Fluoro-1,2-benzisothiazol-3-yl)-1-piperidinyl]propoxy]-3-methoxy-phenyl]ethanone hydrochloride] | 0.16 mg/kg
5 | COc1cc(C(C)=O)ccc1OCCCCN1CCC(c2noc3ccccc23)CC1 [1-[4-[4-[4-(1,2-Benzisoxazol-3-yl)-1-piperidinyl]butoxy]-3-methoxyphenyl]ethanone] | 1.6 mg/kg
6 | COc1cc(C(C)=O)ccc1OCCCCN1CCC(c2noc3cc(F)ccc23)CC1 [1-[4-[4-[4-(6-Fluoro-1,2-benzisoxazol-3-yl)-1-piperidinyl]butoxy]-3-methoxyphenyl]ethanone] | 0.68 mg/kg
7 | C=C1c2ccccc2C(=O)N1CCN1CCC(c2noc3cc(F)ccc23)CC1.Cl [2,3-Dihydro-2-[2-[4-(6-fluoro-1,2-benzisoxazol-3-yl)-1-piperidinyl]ethyl]-3-methylene-1H-isoindol-1-one hydrochloride] | 0.64 mg/kg
8 | O=C1c2ccccc2CN1CCN1CCC(c2noc3cc(F)ccc23)CC1 [2,3-dihydro-2-[2-[4-(6-Fluoro-1,2-benzisoxazol-3-yl)-1-piperidinyl]ethyl]-1H-isoindol-1-one] | 1.9 mg/kg
9 | CC1c2ccccc2C(=O)N1CCN1CCC(c2noc3cc(F)ccc23)CC1 (stereo not shown) [2-[2-[4-(6-Fluoro-1,2-benzisoxazol-3-yl)-1-piperidinylethyl]-2,3-dihydro-3-methyl-1H-isoindol-1-one hydrochloride] | 1.17 mg/kg
10 | O=C1c2ccccc2C(O)N1CCN1CCN(c2n[nH]c3cc(F)ccc23)CC1 (stereo not shown) [2-[2-[4-(6-Fluoro-1H-indazol-3-yl)-1-piperazinyl]ethyl-2,3-dihydro-3-hydroxy-1H-isoindol-1-one hemifumarate] | 2.2 mg/kg
11 | O=C(CN1CCC(c2noc3cc(F)ccc23)CC1)N1Cc2ccccc2C1.O=C(O)/C=C/C(=O)O [2-[4-(6-Fluoro-1,2-benzisoxazol-3-yl)-1-piperidinyl]-1-(2,3-dihydro-1H-isoindol-2-yl)ethanone fumarate] | 2.33 mg/kg
12 | Fc1ccc2c(C3CCN(CCC4COc5ccccc5O4)CC3)noc2c1 (stereo not shown) [2-[4-(6-fluoro-1,2-benzisoxazol-3-yl)-1-piperidinyl]-ethyl]-1,4-benzodioxan] | 0.29 mg/kg
13 | Cc1nc2ccccc2c(=O)n1CCN1CCC(c2noc3cc(F)ccc23)CC1 [3-[2-[4-(6-Fluoro-1,2-benzisoxazol-3-yl)-1-piperidinyl]ethyl]-2-methyl-3H-quinazolin-4-one] | 0.61 mg/kg
14 | Fc1ccc2c(c1)CN(CCN1CCN(c3n[nH]c4ccccc34)CC1)C2.O=C(O)/C=C\C(=O)O.O=C(O)/C=C\C(=O)O [4-(1H-indazol-3-yl)-1-[2-(2,3-dihydro-5-fluoro-1H-isoindol-2-yl)ethyl]piperazine dimaleate] | 1.32 mg/kg
15 | Cl.Cl.Fc1ccc2c(C3CCN(CCN4Cc5ccccc5C4)CC3)noc2c1 [4-(6-Fluoro-1,2-benzisoxazol-3-yl)-1-[2-(2,3-dihydro-1H-isoindol-2-yl)ethyl]-piperidine dihydrochloride] | 0.36 mg/kg
16 | Cc1cccc2c1CN(CCN1CCN(c3n[nH]c4cc(F)ccc34)CC1)C2 [4-(6-Fluoro-1H-indazol-3,yl)-1-[2-(2.3-dihydro-4-methyl-1H-isoindol-2-yl)ethyl]piperazine difumarate] | 0.35 mg/kg
